Source: patent US20260240832A1, “USE OF NITROXOLINE COMPOUND IN ENHANCING EFFECT OF ANTIBACTERIAL AGENT” (Jiangsu Yahong Meditech Co., Ltd., priority 2022, published 2026)
Where two headings read alike, the source gives them in different places.

Legend:
[1] = system: carbapenem-resistant Acinetobacter baumannii; experiment: Chessboard microbroth dilution MIC/FIC, compound 1 in combination with polymyxin; assay type: cell-based; details: for Polymyxin MIC in combination: with compound 1
From the text: This experiment is designed to determine the minimum inhibitory concentration (MIC) of compound 1 in combination with polymyxin against carbapenem-resistant Acinetobacter baumannii and to calculate the fractional inhibitory concentration (FIC) index.
(§1) Test bacteria: 10 strains of carbapenem-resistant Acinetobacter baumannii are clinically isolated strains, and are provided by Shanghai Junji Medical Laboratory Co., Ltd.
(§2) According to the recommendation of the Clinical and Laboratory Standards Institute (CLSI), the microbroth dilution method designed by the chessboard method was used to determine the minimum inhibitory concentration (MIC) of compound 1 in combination with polymyxin against the above strains, and the fractional inhibitory concentration (FIC) index was calculated.
(§3) Compound 1 was dissolved in dimethyl sulfoxide to obtain a stock solution I with a concentration of 51200 mg/L. The stock solution I was subjected to 1:1 gradient dilution with dimethyl sulfoxide to obtain a dilution solution with a concentration range of 51200 to 25 mg/L. The corresponding concentrations were added to sterile water for 100-fold dilution to obtain working solution I with a concentration range of 512 to 0.25 mg/L.
Polymyxin was dissolved in sterile water to obtain a stock solution with a concentration of 5120 mg/L. The polymyxin stock solution was subjected to 1:1 gradient dilution with sterile water to obtain a working solution II with a concentration range of 512 to 0.25 mg/L.
(§4) According to the method in Example 1, a drug sensitive plate was prepared with working solution I and working solution II, and the specific process will not be repeated here.
(§5) (2) The culture medium of the bacterial solution: Cation-Adjusted Mueller-Hinton Broth (CAMHB), a product of BBL, USA, batch number 9015952.
(§6) (3) Formulation method of bacterial solution: According to the direct colony suspension method, the test bacteria cultured overnight were prepared into a 0.5 McFarland turbidity tube using physiological saline. Then, the resulting solution was dilute 100 times with the above culture medium. 100 μL of the resulting bacterial solution was mixed well with the solution (100 μL) in each well of the drug sensitivity plate, and the final inoculation amount was 10^5 CFU/mL.
(§7) (4) Culture conditions: Culturing at 35±2° C. for 20 hours in air.
(§8) (1) The experimental results were determined according to the standard of CLSI 2020 M100 30th edition.
(§9) wherein: FIC≤0.5 indicates synergistic effect; 0.5<FIC≤1.0 indicates additive effect; 1<FIC≤2.0 indicates irrelevant effect; and FIC>2 indicates antagonistic effect.

[2] = system: carbapenem-resistant Acinetobacter baumannii; experiment: Chessboard microbroth dilution MIC/FIC, compound 2 in combination with polymyxin; assay type: cell-based; details: for Polymyxin MIC in combination: with compound 2; for MIC: Acinetobacter baumannii, read-out: Compound 2 MIC alone; for Compound 2 MIC in combination: with polymyxin
From the text: This experiment is designed to determine the minimum inhibitory concentration (MIC) of compound 2 in combination with polymyxin against carbapenem-resistant Acinetobacter baumannii and to calculate the fractional inhibitory concentration (FIC) index.
as §1
as §2, with “2” for “1”
as §3, with “Compound 2” for “Compound 1”
Polymyxin was dissolved in sterile water to obtain a stock solution with a concentration of 5120 mg/L. The […] stock solution was subjected to 1:1 gradient dilution with sterile water to obtain a working solution II with a concentration range of 512 to 0.25 mg/L.
as §4, §5, §6, §7, §8, §9

[3] = strain 18-J11-001, compound 2 + polymyxin
[4] = strain 18-J11-002, compound 2 + polymyxin
[5] = strain 18-J11-034, compound 2 + polymyxin
[6] = strain 18-J11-097, compound 2 + polymyxin
[7] = strain 18-J15-030, compound 2 + polymyxin
[8] = strain 18-J21-095, compound 2 + polymyxin
[9] = strain 18-J24-015, compound 2 + polymyxin
[10] = strain 18-J24-033, compound 2 + polymyxin
[11] = strain 18-J40-021, compound 2 + polymyxin
[12] = strain 18-J51-052, compound 2 + polymyxin

## polymyxin E [reference compound]
[1]; strain 18-J11-001
  Polymyxin MIC alone: 0.25 µg/mL
  Polymyxin MIC in combination: 0.06 µg/mL
[1]; strain 18-J11-002
  Polymyxin MIC alone: 0.25 µg/mL
  Polymyxin MIC in combination: 0.06 µg/mL
[1]; strain 18-J11-034
  Polymyxin MIC alone: 0.5 µg/mL
  Polymyxin MIC in combination: 0.125 µg/mL
[1]; strain 18-J11-097
  Polymyxin MIC alone: 0.25 µg/mL
  Polymyxin MIC in combination: 0.06 µg/mL
[1]; strain 18-J15-030
  Polymyxin MIC alone: 0.5 µg/mL
  Polymyxin MIC in combination: 0.125 µg/mL
[1]; strain 18-J21-095
  Polymyxin MIC alone: 0.25 µg/mL
  Polymyxin MIC in combination: 0.06 µg/mL
[1]; strain 18-J24-015
  Polymyxin MIC alone: 0.5 µg/mL
  Polymyxin MIC in combination: 0.125 µg/mL
[1]; strain 18-J24-033
  Polymyxin MIC alone: 0.5 µg/mL
  Polymyxin MIC in combination: 0.125 µg/mL
[1]; strain 18-J40-021
  Polymyxin MIC alone: 1 µg/mL
  Polymyxin MIC in combination: 0.125 µg/mL
[1]; strain 18-J51-052
  Polymyxin MIC alone: 0.5 µg/mL
  Polymyxin MIC in combination: 0.125 µg/mL
[2]; strain 18-J11-001
  Polymyxin MIC alone: 0.5 µg/mL
  Polymyxin MIC in combination: 0.125 µg/mL
[2]; strain 18-J11-002
  Polymyxin MIC alone: 1 µg/mL
  Polymyxin MIC in combination: 0.25 µg/mL
[2]; strain 18-J11-034
  Polymyxin MIC alone: 0.5 µg/mL
  Polymyxin MIC in combination: 0.25 µg/mL
[2]; strain 18-J11-097
  Polymyxin MIC alone: 0.5 µg/mL
  Polymyxin MIC in combination: 0.125 µg/mL
[2]; strain 18-J15-030
  Polymyxin MIC alone: 0.5 µg/mL
  Polymyxin MIC in combination: 0.25 µg/mL
[2]; strain 18-J21-095
  Polymyxin MIC alone: 0.5 µg/mL
  Polymyxin MIC in combination: 0.25 µg/mL
[2]; strain 18-J24-015
  Polymyxin MIC alone: 1 µg/mL
  Polymyxin MIC in combination: 0.25 µg/mL
[2]; strain 18-J24-033
  Polymyxin MIC alone: 1 µg/mL
  Polymyxin MIC in combination: 0.125 µg/mL
[2]; strain 18-J40-021
  Polymyxin MIC alone: 1 µg/mL
  Polymyxin MIC in combination: 0.25 µg/mL
[2]; strain 18-J51-052
  Polymyxin MIC alone: 1 µg/mL
  Polymyxin MIC in combination: 0.25 µg/mL

## O=[N+]([O-])c1c(Cl)c(F)c2cccnc2c1O [Compound 2, 5-fluoro-6-chloro-7-nitroquinolin-8-ol]
[2]; strain 18-J11-001
  MIC: 8 µg/mL
  Compound 2 MIC in combination: 1 µg/mL
[2]; strain 18-J11-002
  MIC: 4 µg/mL
  Compound 2 MIC in combination: 1 µg/mL
[2]; strain 18-J11-034
  MIC: 4 µg/mL
  Compound 2 MIC in combination: 1 µg/mL
[2]; strain 18-J11-097
  MIC: 4 µg/mL
  Compound 2 MIC in combination: 0.5 µg/mL
[2]; strain 18-J15-030
  MIC: 4 µg/mL
  Compound 2 MIC in combination: 1 µg/mL
[2]; strain 18-J21-095
  MIC: 4 µg/mL
  Compound 2 MIC in combination: 2 µg/mL
[2]; strain 18-J24-015
  MIC: 4 µg/mL
  Compound 2 MIC in combination: 1 µg/mL
[2]; strain 18-J24-033
  MIC: 4 µg/mL
  Compound 2 MIC in combination: 2 µg/mL
[2]; strain 18-J40-021
  MIC: 4 µg/mL
  Compound 2 MIC in combination: 1 µg/mL
[2]; strain 18-J51-052
  MIC: 4 µg/mL
  Compound 2 MIC in combination: 1 µg/mL
[2]; compound 2 + polymyxin
  change of the MIC of polymyxin by the combination: significantly reduce
  effect of the combination (summary of Table 3): synergistic effect or additive effect
[2]; [3]
  FIC index: 0.375
  Results: Synergistic
[2]; [4]
  FIC index: 0.500
  Results: Synergistic
[2]; [5]
  FIC index: 0.750
  Results: Additive
[2]; [6]
  FIC index: 0.375
  Results: Synergistic
[2]; [7]
  FIC index: 0.750
  Results: Additive
[2]; [8]
  FIC index: 1.000
  Results: Additive
[2]; [9]
  FIC index: 0.500
  Results: Synergistic
[2]; [10]
  FIC index: 0.625
  Results: Additive
[2]; [11]
  FIC index: 0.500
  Results: Synergistic
[2]; [12]
  FIC index: 0.500
  Results: Synergistic
